In patent publication US9586951B2 (FUJIFILM Corporation, priority 2013, dated 2017) one finds IC50 data, which are given here for 33 molecules.

T1 sequence (Q13315 whole entry): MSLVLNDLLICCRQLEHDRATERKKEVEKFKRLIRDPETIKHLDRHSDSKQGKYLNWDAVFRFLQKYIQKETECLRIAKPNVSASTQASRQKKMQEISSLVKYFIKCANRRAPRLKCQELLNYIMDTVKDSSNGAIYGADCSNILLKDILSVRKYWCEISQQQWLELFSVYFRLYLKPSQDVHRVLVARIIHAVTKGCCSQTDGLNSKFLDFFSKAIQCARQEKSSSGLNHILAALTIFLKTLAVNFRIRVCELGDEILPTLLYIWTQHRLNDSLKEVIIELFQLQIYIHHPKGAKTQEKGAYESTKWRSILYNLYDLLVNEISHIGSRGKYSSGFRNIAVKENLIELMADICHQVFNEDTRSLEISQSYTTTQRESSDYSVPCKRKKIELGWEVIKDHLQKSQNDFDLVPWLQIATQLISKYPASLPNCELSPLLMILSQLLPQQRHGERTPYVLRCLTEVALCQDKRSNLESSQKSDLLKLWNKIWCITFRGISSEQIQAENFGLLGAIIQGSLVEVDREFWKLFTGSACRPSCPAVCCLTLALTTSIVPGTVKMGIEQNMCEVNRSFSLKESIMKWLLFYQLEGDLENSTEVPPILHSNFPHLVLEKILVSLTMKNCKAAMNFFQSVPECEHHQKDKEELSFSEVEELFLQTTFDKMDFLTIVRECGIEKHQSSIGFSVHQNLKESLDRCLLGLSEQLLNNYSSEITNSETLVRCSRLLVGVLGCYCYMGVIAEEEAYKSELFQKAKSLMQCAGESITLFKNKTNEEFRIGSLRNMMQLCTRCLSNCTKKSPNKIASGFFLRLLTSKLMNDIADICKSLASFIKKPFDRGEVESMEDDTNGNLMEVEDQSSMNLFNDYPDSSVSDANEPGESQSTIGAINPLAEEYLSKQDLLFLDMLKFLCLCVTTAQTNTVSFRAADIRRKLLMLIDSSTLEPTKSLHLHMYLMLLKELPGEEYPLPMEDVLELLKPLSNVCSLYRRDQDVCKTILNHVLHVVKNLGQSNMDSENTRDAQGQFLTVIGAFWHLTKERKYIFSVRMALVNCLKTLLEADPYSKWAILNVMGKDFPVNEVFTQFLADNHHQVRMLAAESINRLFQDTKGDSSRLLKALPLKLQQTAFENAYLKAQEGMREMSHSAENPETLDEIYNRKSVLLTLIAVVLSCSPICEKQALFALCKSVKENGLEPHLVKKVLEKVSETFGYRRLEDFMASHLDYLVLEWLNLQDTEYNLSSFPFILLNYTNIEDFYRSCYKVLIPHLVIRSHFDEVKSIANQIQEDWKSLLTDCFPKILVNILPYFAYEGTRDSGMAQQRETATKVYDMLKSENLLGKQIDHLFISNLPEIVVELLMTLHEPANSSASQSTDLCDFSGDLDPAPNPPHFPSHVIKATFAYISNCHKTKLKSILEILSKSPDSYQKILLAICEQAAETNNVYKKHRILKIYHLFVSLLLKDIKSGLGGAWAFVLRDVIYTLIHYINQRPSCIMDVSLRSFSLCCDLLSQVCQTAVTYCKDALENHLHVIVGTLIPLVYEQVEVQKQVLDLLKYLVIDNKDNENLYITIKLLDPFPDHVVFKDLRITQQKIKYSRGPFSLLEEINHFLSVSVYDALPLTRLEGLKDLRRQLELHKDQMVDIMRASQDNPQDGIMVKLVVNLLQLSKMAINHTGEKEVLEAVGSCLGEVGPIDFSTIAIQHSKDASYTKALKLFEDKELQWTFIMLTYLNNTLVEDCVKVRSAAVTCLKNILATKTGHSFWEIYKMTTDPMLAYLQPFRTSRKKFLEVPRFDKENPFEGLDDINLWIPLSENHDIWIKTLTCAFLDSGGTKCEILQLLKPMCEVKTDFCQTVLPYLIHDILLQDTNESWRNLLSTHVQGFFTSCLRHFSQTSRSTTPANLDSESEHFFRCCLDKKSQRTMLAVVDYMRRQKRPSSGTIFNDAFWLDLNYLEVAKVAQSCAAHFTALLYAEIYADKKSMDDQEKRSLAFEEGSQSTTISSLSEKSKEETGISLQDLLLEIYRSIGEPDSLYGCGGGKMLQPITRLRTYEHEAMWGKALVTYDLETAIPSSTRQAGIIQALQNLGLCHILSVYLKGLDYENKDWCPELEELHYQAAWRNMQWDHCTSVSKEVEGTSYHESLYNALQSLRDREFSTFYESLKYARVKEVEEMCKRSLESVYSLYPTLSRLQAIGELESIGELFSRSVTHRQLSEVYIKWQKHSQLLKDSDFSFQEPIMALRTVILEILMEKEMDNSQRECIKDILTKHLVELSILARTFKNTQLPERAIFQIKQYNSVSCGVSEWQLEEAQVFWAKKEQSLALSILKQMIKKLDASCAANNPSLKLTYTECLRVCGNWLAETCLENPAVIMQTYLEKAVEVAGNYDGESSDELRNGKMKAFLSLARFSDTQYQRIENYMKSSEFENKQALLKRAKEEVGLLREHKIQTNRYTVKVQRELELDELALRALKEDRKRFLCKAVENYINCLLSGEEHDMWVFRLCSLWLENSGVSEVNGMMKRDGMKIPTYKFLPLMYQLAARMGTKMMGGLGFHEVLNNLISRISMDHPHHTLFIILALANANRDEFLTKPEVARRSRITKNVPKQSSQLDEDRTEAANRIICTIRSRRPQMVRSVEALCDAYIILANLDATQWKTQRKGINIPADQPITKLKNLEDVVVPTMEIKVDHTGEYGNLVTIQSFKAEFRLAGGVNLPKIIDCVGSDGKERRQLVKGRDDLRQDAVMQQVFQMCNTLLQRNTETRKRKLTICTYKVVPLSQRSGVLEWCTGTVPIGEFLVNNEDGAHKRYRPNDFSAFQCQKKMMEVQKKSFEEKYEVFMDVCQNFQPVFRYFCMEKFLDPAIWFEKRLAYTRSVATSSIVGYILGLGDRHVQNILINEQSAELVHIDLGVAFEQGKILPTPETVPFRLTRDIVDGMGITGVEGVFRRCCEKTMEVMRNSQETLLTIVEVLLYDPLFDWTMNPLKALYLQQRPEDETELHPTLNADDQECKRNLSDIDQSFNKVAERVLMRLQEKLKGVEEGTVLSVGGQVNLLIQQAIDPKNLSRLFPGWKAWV

This test has as its target T1, ATM (Homo sapiens, UniProt Q13315).
T1 construct: detecting phosphorylation of Chk2 in a human non-small cell lung cancer cell line NCI-H460 (ATCC company); host or cells: NCI-H460 human non-small cell lung cancer cells
In words: ATM inhibition test (phosphorylation of Chk2 generated by ionizing radiation, AlphaScreen SureFire). In kind it is cell-based. Particulars: phosphorylated Chk2 in NCI-H460 cells, ionizing radiation 8Gy, 1 hour after test compound treatment; read-out: ATM inhibitory activity. The essentials:
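NCI-H460 cells, compound 1 h pre-treatment, 8Gy IR, further 1 h at 37° C in 5% CO2. Read-out: phospho-Chk2 via AlphaScreen SureFire. % inhibition relative to IR-induced signal window (irradiated vs non-irradiated drug-free wells).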
On the technique in general: In Alpha technology, singlet oxygen from a donor bead excites a nearby acceptor bead.
Take `Cc1cncc(C(C)Nc2ccc3c(c2)Cc2cccc(-c4cc(N5CCOCC5)cc(=O)[nH]4)c2O3)c1` (single isomer, unassigned) [Example 2-14-88-1, 6-(7-((1-(5-methylpyridin-3-yl)ethyl)amino)-9H-xanthen-4-yl)-4-morpholinopyridin-2(1H)-one]: the IC50 was 100 to 500 nM. The result for `O=c1cc(N2CCOCC2)cc(-c2cccc3c2Oc2ccc(NC4CCC5(CC4)OCCO5)cc2C3)[nH]1` [Example 2-2-62, 6-(7-(1,4-Dioxaspiro[4.5]decan-8-ylamino)-9H-xanthen-4-yl)-4-morpholino pyridin-2(1H)-one] reads 100 to 500 nM; that for `O=c1cc(N2CCOCC2)cc(-c2cccc3c2Oc2ccc(NCCN4CCOCC4)cc2S3)[nH]1` [Example 4-11, 4-Morpholino-6-(8-((2-morpholinoethyl)amino)phenoxathiin-4-yl)pyridin-2(1H)-one], 100 to 500 nM; that for `O=c1cc(N2CCOCC2)cc(-c2cccc3c2Sc2ccc(NCCN4CCC(F)(F)C4)cc2S3)[nH]1` [Example 1-10-2, 6-(7-((2-(3,3-Difluoropyrrolidin-1-yl)ethyl)amino)thianthren-1-yl)-4-morpholinopyridin-2(1H)-one], 100 to 500 nM. The result for `Cn1c(CNc2ccc3c(c2)Cc2cccc(-c4cc(N5CCOCC5)cc(=O)[nH]4)c2O3)cccc1=O` [Example 2-2-47, 1-Methyl-6-(((5-(4-morpholino-6-oxo-1,6-dihydropyridin-2-yl)-9H-xanthen-2-yl)amino)methyl) pyridin-2(1H)-one] reads 500 to 2000 nM. The result for `O=c1cc(N2CCOCC2)cc(-c2cccc3c2Oc2ccc(NCc4ccncc4)cc2CC3)[nH]1` [Example 2-51-3, 4-Morpholino-6-(8-((pyridin-4-ylmethyl)amino)-10,11-dihydrodibenz[b,f]oxepin-4-yl)pyridin-2(1H)-one] reads 500 to 2000 nM; that for `Cc1ccnc(C(CO)Nc2ccc3c(c2)Cc2cccc(-c4cc(N5CCOCC5)cc(=O)[nH]4)c2O3)c1` (racemic) [Example 2-14-39, 6-(7-((2-Hydroxy-1-(4-methylpyridin-2-yl)ethyl)amino)-9H-xanthen-4-yl)-4-morpholino pyridin-2 (1H)-one], 100 to 500 nM; that for `COc1cncc(C(C)Nc2ccc3c(c2)Cc2cccc(-c4nc(N5CCOCC5)cc(=O)[nH]4)c2O3)c1` (stereo not drawn) [Example 2-52-4, 2-(7-((1-(5-Methoxypyridin-3-yl)ethyl)amino)-9H-xanthen-4-yl)-6-morpholinopyrimidine-4(3H)-one], 100 to 500 nM. `COCCN1CCOC(C(Nc2ccc3c(c2)Sc2cccc(-c4cc(N5CCOCC5)cc(=O)[nH]4)c2S3)c2ccc(C)cn2)C1` (single isomer, unassigned) [Example 1-56-9, 6-(7-(((4-(2-Methoxyethyl)morpholin-2-yl)(5-methylpyridin-2-yl)methyl)amino)thianthren-1-yl)-4-morpholino pyridin-2(1H)-one]: the IC50 is < 100 nM. The result for `Cc1nccc(C(C)Nc2ccc3c(c2)Cc2cccc(-c4cc(N5CCOCC5)cc(=O)[nH]4)c2O3)n1` (stereo not drawn) [Example 2-14-48, 6-(7-((1-(2-Methylpyrimidin-4-yl)ethyl)amino)-9H-xanthen-4-yl)-4-morpholino pyridin-2 (1H)-one] reads 100 to 500 nM; that for `O=c1cc(N2CCOCC2)cc(-c2cccc3c2Sc2ccc(NC4CCCN(C5CCCCC5)C4)cc2S3)[nH]1` (stereo not drawn) [Example 1-24-1, 6-(7-((1-Cyclohexylpiperidin-3-yl)amino)thianthren-1-yl)-4-morpholinopyridin-2(1H)-one], 100 to 500 nM. Regarding `COc1ccc(CCN2CCCC(Nc3ccc4c(c3)Sc3cccc(-c5cc(N6CCOCC6)cc(=O)[nH]5)c3O4)CC2)cc1` (stereo not drawn) [Example 4-7, 6-(8-((1-(4-Methoxyphenethyl)azepan-4-yl)amino)phenoxathiin-4-yl)-4-morpholinopyridin-2(1H)-one], the IC50 lay within 100 to 500 nM. The result for `CNCCC(Nc1ccc2c(c1)Sc1cccc(-c3cc(N4CCOCC4)cc(=O)[nH]3)c1S2)c1cnc(C)cn1` (stereo not drawn) [Example 1-20-11, 6-(7-((3-(Methylamino)-1-(5-methylpyrazin-2-yl)propyl)amino)thianthren-1-yl)-4-morpholino pyridin-2 (1H)-one] reads 500 to 2000 nM; that for `O=c1cc(N2CCOCC2)cc(-c2cccc3c2Oc2ccc(NC4CN(CCc5ccccc5)C4)cc2C3)[nH]1` [Example 2-19-6, 4-Morpholino-6-(7-((1-phenethylazetidin-3-yl)amino)-9H-xanthen-4-yl)pyridin-2(1H)-one], 100 to 500 nM. With `COc1cccnc1CNc1ccc2c(c1)Cc1cccc(-c3cc(N4CCOCC4)cc(=O)[nH]3)c1O2` [Example 2-14-8, 6-(7-(((3-Methoxypyridin-2-yl)methyl)amino)-9H-xanthen-4-yl)-4-morpholino pyridin-2(1H)-one] the figure was 100 to 500 nM; with `O=c1cc(N2CCOCC2)cc(-c2cccc3c2Oc2ccc(NCc4cncc(-n5cccn5)c4)cc2C3)[nH]1` [Example 2-2-55, 6-(7-(((5-(1H-Pyrazol-1-yl)pyridin-3-yl)methyl)amino)-9H-xanthen-4-yl)-4-morpholino pyridin-2 (1H)-one], 100 to 500 nM; with `Cn1cc(-c2cc(CNc3ccc4c(c3)Cc3cccc(-c5cc(N6CCOCC6)cc(=O)[nH]5)c3O4)ccn2)cn1` [Example 2-4, 6-(7-(((2-(1-methyl-1H-pyrazol-4-yl)pyridin-4-yl)methyl)amino)-9H-xanthen-4-yl)-4-morpholinopyridin-2(1H)-one], < 100 nM. The result for `Cc1cccc(C(Nc2ccc3c(c2)Sc2cccc(-c4cc(N5CCOCC5)cc(=O)[nH]4)c2S3)C2CCCNC2)n1` (stereo not drawn) [Example 1-20-13, 6-(7-(((6-Methylpyridin-2-yl)(piperidin-3-yl)methyl)amino)thianthren-1-yl)-4-morpholino pyridin-2(1H)-one] reads 500 to 2000 nM; that for `COc1ccnc(C(C)Nc2ccc3c(c2)Cc2ccnc(-c4cc(N5CCOCC5)cc(=O)[nH]4)c2O3)c1` (stereo not drawn) [Example 2-41-14], 100 to 500 nM.

Regarding `O=c1cc(N2CCOCC2)cc(-c2cccc3c2Oc2ccc(NCc4cncc(F)c4)cc2C3)[nH]1` [Example 2-2-10, 6-(7-(((5-Fluoropyridin-3-yl)methyl)amino)-9H-xanthen-4-yl)-4-morpholino pyridin-2 (1H)-one], the IC50 lay within 100 to 500 nM. The result for `Cc1csc(CNc2ccc3c(c2)Sc2cccc(-c4cc(N5CCOCC5)cc(=O)[nH]4)c2S3)c1` [Example 1-12-58, 6-(7-(((4-Methylthiophen-2-yl)methyl)amino)thianthren-1-yl)-4-morpholino pyridin-2 (1H)-one] reads 100 to 500 nM; that for `O=c1cc(N2CCOCC2)cc(-c2cccc3c2Sc2ccc(N[C@H](CCN4CCOCC4)CN4CCOCC4)cc2S3)[nH]1` [Example 8-1, (R)-6-(7-((1,4-dimorpholinobutan-2-yl)amino)thianthren-1-yl)-4-morpholinopyridin-2(1H)-one], 100 to 500 nM; that for `COc1ccccc1CCN1CCC(Nc2ccc3c(c2)Cc2cccc(-c4cc(N5CCOCC5)cc(=O)[nH]4)c2O3)CC1` [Example 2-30-10, 6-(7-((1-(2-Methoxyphenethyl)piperidin-4-yl)amino)-9H-xanthen-4-yl)-4-morpholino pyridin-2(1H)-one], 500 to 2000 nM. The result for `CNc1ccc2c(c1)Cc1cccc(-c3cc(N4CCOCC4)cc(=O)[nH]3)c1S2` [Example 3-10, 6-(7-(methylamino)-9H-thioxanthen-4-yl)-4-morpholinopyridin-2(1H)-one] reads 500 to 2000 nM; that for `O=c1cc(N2CCOCC2)cc(-c2ccc(F)c3c2Oc2ccc(NCc4cccc(Cl)n4)cc2C3)[nH]1` [Example 2-44-1, 6-(7-(((6-Chloropyridin-2-yl)methyl)amino)-1-fluoro-9H-xanthen-4-yl)-4-morpholinopyridin-2(1H)-one], 100 to 500 nM. With `Cc1cccc(CN(CC(=O)O)c2ccc3c(c2)Cc2cccc(-c4cc(N5CCOCC5)cc(=O)[nH]4)c2O3)n1` [Example 2-17, 2-(((6-methylpyridin-2-yl)methyl)(5-(4-morpholino-6-oxo-1,6-dihydropyridin-2-yl)-9H-xanthen-2-yl)amino)acetic acid] the figure was 500 to 2000 nM; with `Nc1ccc2c(c1)Cc1cccc(-c3cc(N4CCOCC4)cc(=O)[nH]3)c1O2` [Example 2-1-1, 5-6-(7-amino-9H-xanthen-4-yl)-4-morpholinopyridin-2(1H)-one], 500 to 2000 nM; with `O=c1cc(N2CCOCC2)cc(-c2cccc3c2Cc2ccc(NCc4ccc(Cl)nc4)cc2O3)[nH]1` [Example 6, 6-(6-(((6-chloropyridin-3-yl)methyl)amino)-9H-xanthen-1-yl)-4-morpholinopyridin-2(1H)-one], 500 to 2000 nM. Take `Nc1ccc2c(c1)Cc1cccc(-c3cc(N4CCOCC4)cc(=O)[nH]3)c1S2` [Example 3-1, 6-(7-amino-9H-thioxanthen-4-yl)-4-morpholinopyridin-2(1H)-one]: the IC50 lay in the range of 500 to 2000 nM. With `Cc1cnc(C(CCN(C)CCO)Nc2ccc3c(c2)Sc2cccc(-c4cc(N5CCOCC5)cc(=O)[nH]4)c2S3)cn1` (single isomer, unassigned) [Example 10-4-2, 6-(7-((3-((2-Hydroxyethyl)(methyl)amino)-1-(5-methylpyrazin-2-yl)propyl)amino)thianthren-1-yl)-4-morpholinopyridin-2(1H)-one] the figure was 100 to 500 nM. As to `Cc1ccc(C(Nc2ccc3c(c2)Sc2cccc(-c4cc(N5CCOCC5)cc(=O)[nH]4)c2S3)[C@H]2CCCN2C)nc1` (single isomer, unassigned) [Example 1-56-4], the IC50 lay within 100 to 500 nM.

As to `O=c1cc(N2CCOCC2)cc(-c2cccc3c2Oc2ccc(NCc4cnccc4Cl)cc2S3)[nH]1` [Example 4-4-18], the IC50 was in the range of 100 to 500 nM.

For `CN(C)[C@H]1CC[C@H](N(C)c2ccc3c(c2)Cc2cccc(-c4cc(N5CCOCC5)cc(=O)[nH]4)c2O3)CC1` [Example 2-10, 6-(7-(((Trans)-4-(dimethylamino)cyclohexyl)(methyl)amino)-9H-xanthen-4-yl)-4-morpholinopyridin-2(1H)-one], the IC50 lay within 500 to 2000 nM.
